{"source": "patent US6914045B2", "about": "“Glycopeptide antibiotics” (Wyeth Holdings Corporation, priority 2001, dated 2005)", "test_in_all_cases": "in vitro antibacterial evaluation, MIC by broth dilution", "format_in_all_cases": "cell-based", "key": {"[1]": {"test_system": "Escherichia coli", "details": "18 hours at 35° C."}, "[2]": {"test_system": "Staphylococcus sp.", "details": "broth dilution, 18 hours at 35° C.; for MIC Staphylococcus aureus (GC 1131): strain GC 1131", "how_it_was_run": "(§1)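 Broth dilution per NCCLS standard M7-A2 in Muller-Hinton II […], with an inoculum of 5×10^5 CFU/mL and antibiotic spanning 64-0.06 μg/mL. The MIC is the lowest concentration that inhibits growth of the organism.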"}, "[3]": {"test_system": "Streptococcus sp.", "details": "broth dilution, 18 hours at 35° C.", "how_it_was_run": "as §1"}, "[4]": {"test_system": "Enterococcus sp.", "details": "broth dilution, 18 hours at 35° C.", "how_it_was_run": "as §1"}}, "data": [{"smiles": "CCCC(C)C1OCC2OC(OC3C(CO)OC(Oc4ccc(CC5NC(=O)C(C(C)c6ccc(Cl)cc6)NC(=O)CNC(=O)C(CO)NC(=O)C(C(O)C6CNC(=N)N6C6OC(CO)C(O)C(O)C6O)NC(=O)C(C(O)C6CNC(=N)N6)NC5=O)cc4)C(O)C3O)C(O)C(O)C2O1", "note": "(stereo not shown) [Example 194]", "values": [{"measurement": "MIC Escherichia coli (GC 4559)", "setting": "[1]", "value": 32, "unit": "µg/mL"}, {"measurement": "MIC Escherichia coli (GC 4560)", "setting": "[1]", "value": 2, "unit": "µg/mL"}, {"measurement": "MIC Staphylococcus aureus (GC 1131)", "setting": "[2]; inoculum 5×10^5 CFU/mL", "value": 1, "unit": "µg/mL"}, {"measurement": "MIC Staphylococcus aureus (ATCC 29213)", "setting": "[2]; strain ATCC 29213", "value": 0.5, "unit": "µg/mL"}, {"measurement": "MIC Staphylococcus aureus (GC 1131)", "setting": "[2]", "value": 1, "unit": "µg/mL"}, {"measurement": "MIC Staphylococcus aureus (GC 3051)", "setting": "[2]; strain GC 3051", "value": 1, "unit": "µg/mL"}, {"measurement": "MIC Staphylococcus aureus (GC 3053)", "setting": "[2]; strain GC 3053", "value": 1, "unit": "µg/mL"}, {"measurement": "MIC Staphylococcus aureus (GC 4541)", "setting": "[2]; strain GC 4541", "value": 0.5, "unit": "µg/mL"}, {"measurement": "MIC Staphylococcus aureus (GC 4542)", "setting": "[2]; strain GC 4542", "value": 0.5, "unit": "µg/mL"}, {"measurement": "MIC Staphylococcus aureus-SMITH (GC 4543)", "setting": "[2]; strain GC 4543", "value": 0.5, "unit": "µg/mL"}, {"measurement": "MIC Staphylococcus aureus (GC 4544)", "setting": "[2]; strain GC 4544", "value": 2, "unit": "µg/mL"}, {"measurement": "MIC Staphylococcus aureus (GC 4545)", "setting": "[2]; strain GC 4545", "value": 1, "unit": "µg/mL"}, {"measurement": "MIC Staphylococcus haemolyticus (GC 4546)", "setting": "[2]; strain GC 4546", "value": 0.5, "unit": "µg/mL"}, {"measurement": "MIC Coagulase Negative Staphylococcus (GC 4547)", "setting": "[2]; strain GC 4547", "value": 1, "unit": "µg/mL"}, {"measurement": "MIC Coagulase Negative Staphylococcus (GC 4548)", "setting": "[2]; strain GC 4548", "value": 0.5, "unit": "µg/mL"}, {"measurement": "MIC Coagulase Negative Staphylococcus (GC 4549)", "setting": "[2]; strain GC 4549", "value": 0.5, "unit": "µg/mL"}, {"measurement": "MIC Coagulase Negative Staphylococcus (GC 4551)", "setting": "[2]; strain GC 4551", "value": 1, "unit": "µg/mL"}, {"measurement": "MIC Coagulase Negative Staphylococcus (GC 6257)", "setting": "[2]; strain GC 6257", "value": 0.5, "unit": "µg/mL"}, {"measurement": "MIC Streptococcus agalactiae (GC 4564)", "setting": "[3]", "value": "<0.06", "unit": "µg/mL"}, {"measurement": "MIC Streptococcus pneumoniae (ATCC 6301)", "setting": "[3]", "value": 0.25, "unit": "µg/mL"}, {"measurement": "MIC Streptococcus pneumoniae (GC 1894)", "setting": "[3]", "value": 0.12, "unit": "µg/mL"}, {"measurement": "MIC Streptococcus pneumoniae (GC 4565)", "setting": "[3]", "value": "<0.06", "unit": "µg/mL"}, {"measurement": "MIC Streptococcus pyogenes (GC 4563)", "setting": "[3]", "value": "<0.06", "unit": "µg/mL"}, {"measurement": "MIC Streptococcus pneumoniae (ATCC 6301)", "setting": "[3]; inoculum 5×10^5 CFU/mL, strain ATCC 6301", "value": 0.25, "unit": "µg/mL"}, {"measurement": "MIC Streptococcus pneumoniae (GC 1894)", "setting": "[3]; inoculum 5×10^5 CFU/mL, strain GC 1894", "value": 0.12, "unit": "µg/mL"}, {"measurement": "MIC Streptococcus pyogenes (GC 4563)", "setting": "[3]; inoculum 5×10^5 CFU/mL, strain GC 4563", "value": "<0.06", "unit": "µg/mL"}, {"measurement": "MIC Streptococcus agalactiae (GC 4564)", "setting": "[3]; inoculum 5×10^5 CFU/mL, strain GC 4564", "value": "<0.06", "unit": "µg/mL"}, {"measurement": "MIC Streptococcus pneumoniae (GC 4565)", "setting": "[3]; inoculum 5×10^5 CFU/mL, strain GC 4565", "value": "<0.06", "unit": "µg/mL"}, {"measurement": "MIC Enterococcus avium (GC 4558)", "setting": "[4]", "value": 2, "unit": "µg/mL"}, {"measurement": "MIC Enterococcus faecalis (ATCC 29212)", "setting": "[4]", "value": 2, "unit": "µg/mL"}, {"measurement": "MIC Enterococcus faecalis (GC 2242)", "setting": "[4]", "value": 1, "unit": "µg/mL"}, {"measurement": "MIC Enterococcus faecalis (GC 2691)", "setting": "[4]", "value": 2, "unit": "µg/mL"}, {"measurement": "MIC Enterococcus faecalis (GC 3059)", "setting": "[4]", "value": 1, "unit": "µg/mL"}, {"measurement": "MIC Enterococcus faecalis (GC 4552)", "setting": "[4]", "value": 1, "unit": "µg/mL"}, {"measurement": "MIC Enterococcus faecalis (GC 4553)", "setting": "[4]", "value": 2, "unit": "µg/mL"}, {"measurement": "MIC Enterococcus faecalis (GC 4554)", "setting": "[4]", "value": 1, "unit": "µg/mL"}, {"measurement": "MIC Enterococcus faecalis (GC 6189)", "setting": "[4]", "value": 0.5, "unit": "µg/mL"}, {"measurement": "MIC Enterococcus faecium (GC 2243)", "setting": "[4]", "value": 1, "unit": "µg/mL"}, {"measurement": "MIC Enterococcus faecium (GC 4556)", "setting": "[4]", "value": 1, "unit": "µg/mL"}, {"measurement": "MIC Enterococcus faecium (GC 4557)", "setting": "[4]", "value": 2, "unit": "µg/mL"}, {"measurement": "MIC Enterococcus faecalis (ATCC 29212)", "setting": "[4]; inoculum 5×10^5 CFU/mL, strain ATCC 29212", "value": 2, "unit": "µg/mL"}, {"measurement": "MIC Enterococcus faecalis (GC 2242)", "setting": "[4]; inoculum 5×10^5 CFU/mL, strain GC 2242", "value": 1, "unit": "µg/mL"}, {"measurement": "MIC Enterococcus faecium (GC 2243)", "setting": "[4]; inoculum 5×10^5 CFU/mL, strain GC 2243", "value": 1, "unit": "µg/mL"}, {"measurement": "MIC Enterococcus faecalis (GC 2691)", "setting": "[4]; inoculum 5×10^5 CFU/mL, strain GC 2691", "value": 2, "unit": "µg/mL"}, {"measurement": "MIC Enterococcus faecalis (GC 3059)", "setting": "[4]; inoculum 5×10^5 CFU/mL, strain GC 3059", "value": 1, "unit": "µg/mL"}, {"measurement": "MIC Enterococcus faecalis (GC 4552)", "setting": "[4]; inoculum 5×10^5 CFU/mL, strain GC 4552", "value": 1, "unit": "µg/mL"}, {"measurement": "MIC Enterococcus faecalis (GC 4553)", "setting": "[4]; inoculum 5×10^5 CFU/mL, strain GC 4553", "value": 2, "unit": "µg/mL"}, {"measurement": "MIC Enterococcus faecalis (GC 4554)", "setting": "[4]; inoculum 5×10^5 CFU/mL, strain GC 4554", "value": 1, "unit": "µg/mL"}, {"measurement": "MIC Enterococcus faecium (GC 4556)", "setting": "[4]; inoculum 5×10^5 CFU/mL, strain GC 4556", "value": 1, "unit": "µg/mL"}, {"measurement": "MIC Enterococcus faecium (GC 4557)", "setting": "[4]; inoculum 5×10^5 CFU/mL, strain GC 4557", "value": 2, "unit": "µg/mL"}, {"measurement": "MIC Enterococcus avium (GC 4558)", "setting": "[4]; inoculum 5×10^5 CFU/mL, strain GC 4558", "value": 2, "unit": "µg/mL"}, {"measurement": "MIC Enterococcus faecalis (GC 6189)", "setting": "[4]; inoculum 5×10^5 CFU/mL, strain GC 6189", "value": 0.5, "unit": "µg/mL"}]}]}
